# Paper PMC7827417, “Steroid Glycosides Hyrcanoside and Deglucohyrcanoside: On Isolation, Structural Identification, and Anticancer Activity” (Foods, 2021)
# Where two headings read alike, the source gives them in different places.
# Tests used:
# CCRF-CEM cells [1] = experiment: BrDU incorporation analysis (DNA synthesis); type: cell-based, human; conditions: % of positive cells
# Experimental: The cells were cultured in the same way as the cell cycle analysis method. Just before harvesting, 5-bromo-2′-deoxyuridine (BrDU) of 10 µM concentration was added to the cells for pulse-labeling for 30 min. Then, the cells were fixed with −20 °C cold 70% ethanol and stored in a freezer for 16 h. Before antibody staining, the samples were incubated on ice for 30 min, washed once with phosphate-buffered saline (PBS), and re-suspended in 2 M of HCl for 30 min at room temperature to hydrolyze their DNA. After neutralization with 0.1 M of Na2B4O7 (borax) solution, the cells were washed with PBS containing 0.5% Tween-20 and 1% BSA. This was followed by staining with the primary anti-BrDU antibody (Exbio) for 30 min at room temperature. Then, the cells were washed with PBS and stained with a secondary anti-mouse antibody conjugated to fluorescein isothiocyanate (Merck-Sigma, St. Louis, MS, USA) at room temperature in the dark. After another washing with PBS and incubation with propidium iodide (0.1 mg·mL^−1) and RNAse A (0.5 mg·mL^−1) for 1 h at room temperature in the dark, the cells were analyzed by flow cytometry using a 488 nm laser (FACSCalibur, Becton Dickinson, Franklin Lakes, NJ, USA).
# mouse peritoneal cells = experiment: Viability of mouse peritoneal primary cells (macrophages), WST-1; type: cell-based; conditions: 24 h; for IC50: Mus musculus, Macrophage, WST-1, lowest tested concentration 1 nM, read-out: concentration at which IC50 was reached in mouse macrophages
# Experimental: Female mice of the inbred strain C57BL/6, eight to ten weeks old, were purchased from Charles River Deutschland (Sulzfeld, Germany). They were kept in transparent plastic cages in groups of ten. The animals were housed with food and water ad libitum, lighting was set on 6–18 h, and the temperature was set at 22 °C. All protocols were approved by the institutional ethics committee (MSMT15894/2013-310). Animals, killed by cervical dislocation, were intraperitoneally injected with 8 mL of sterile saline. Pooled peritoneal cells collected from mice were washed in sterile saline, re-suspended in the culture medium, and seeded into 96-well microplates in final 100-μL volumes (Costar, Cambridge, MA, USA). The final density of the cells was 0.25 × 10^6 per mL^−1. The cultures were maintained with or without compounds for 24 h at 37 °C with 5% CO2 in a humidified Heraeus incubator in complete RPMI-1640 (Merck-Sigma, St. Louis, MS, USA), which contained 10% heat-inactivated fetal bovine serum, 2 mM of L-glutamine, 50 μg·mL^−1 of gentamicin, and 5 × 10^−5 M of 2-mercaptoethanol (all Merck-Sigma, St. Louis, MS, USA). Compounds (Ob, Cy (cymarin), Hyr, deHyr) were prepared as 100 mM stock solutions in dimethyl sulfoxide (DMSO) with cell culture grade. The next dilution continued immediately before the experiment with the culture medium. To eliminate the influence of DMSO, equal levels of DMSO were added to the experimental groups.
# The viability of mouse peritoneal cells was determined using a colorimetric assay based on the cleavage of the tetrazolium salt WST-1 by mitochondrial dehydrogenases in viable cells (Merck-Sigma, St. Louis, MS, USA). The cells were cultured as described above. After 24 h of culture, the WST-1 was added, and the cells were kept in the Heraeus incubator at 37 °C for an additional 3 h. Optical density at 450/690 nm was determined. The cytotoxicity of the tested CGs was expressed as a percentage. The test samples were related to control samples consisting of untreated cells and samples with 100% dead cells evoked by 1% Triton, according to the formula: ((exp. value − control value)/(Triton value − control value)) × 100. All control and experimental variants were run in quadruplicates. The data were analyzed using GraphPad Prism software 6.05 (GraphPad, San Diego, CA, USA). Values were expressed as the mean ± standard error of the mean (SEM).
# CCRF-CEM cells [2] = experiment: BrU incorporation analysis (RNA synthesis); type: cell-based, human; conditions: % of positive cells
# Experimental: The cells were cultured and processed as described above. Before harvesting, the cells were pulse-labeled with 1 mM of 5-bromouridine (BrU) for 30 min. The cells were then fixed in 1% buffered paraformaldehyde with 0.05% NP-40 at room temperature for 15 min, and then stored at 4 °C overnight. Before measurement, they were washed with 1% glycine in PBS, washed again with PBS, and stained with primary anti-BrdU antibody cross-reactive to BrU (Exbio) for 30 min at room temperature in the dark. From this point on, the experiment was performed exactly as in the method described above.
# L929 = experiment: MTS cytotoxic assay, L929; type: cell-based, mouse
# Excerpt: (§1) If not indicated otherwise, the cell lines were purchased from the American Type Culture Collection (ATCC). […] K562 is the erythroid-myeloid precursor cell line derived from chronic myeloid leukemia carrying the BCR-ABL hybrid gene. A549, MCF-7, PC-3, 5637, U-2 OS, and MiaPaCa-2 are cells derived from lung, breast, prostate, bladder carcinoma, osteosarcoma, and pancreatic adenocarcinoma, respectively. HEK 293T are transformed human embryonic kidney cells, and L929 (Sigma, St. Louis, MS, USA) are transformed mouse fibroblasts. HCT116, cells from colorectal carcinoma, and their p53 gene knock-out variant (HCT116p53-/-) were purchased from Horizon Discovery. This cell line is a model of human tumors bearing p53 loss-of-function mutations or biallelic deletion of the p53 gene, frequently associated with poor prognosis. The MRC-5 and BJ cells were used as noncancerous cells; more specifically, they are human fibroblasts from the lungs and foreskin, respectively. According to the supplier’s recommendations, all cells were cultured at 37 °C in a 5% CO2 atmosphere and 100% humidity. The culture media used were: DMEM, RPMI 1640, and MEM (according to a cell line); all were supplemented with 5 g L^−1 glucose, 10% fetal calf serum, 2 mM glutamine, 100 U mL^−1 penicillin, 100 µg mL^−1 streptomycin, and NaHCO3. Cells were passaged every two or three days using 0.25% trypsin plus 0.01% EDTA (ethylenediamine tetraacetic acid) in phosphate-buffered saline.
# (§2) To evaluate compound cytotoxicity, cells were seeded in 384-well microtiter plates in a volume of […]. The next day, aliquots of the tested derivatives were transferred with Echo550 acoustic liquid handler (Labcyte) to obtain dose response curves with dilution factor 4. The experiments were performed in technical duplicates and three or more biological replicates. After 72 h of incubation in a humidified incubator, […] of the MTS/PMS stock solution were pipetted into each well. After another 1–4 h of incubation, the absorbance at 490 nm was measured using an EnVision Multilabel Plate Reader (PerkinElmer).
# CCRF-CEM = experiment: MTS cytotoxic assay, CCRF-CEM; type: cell-based; conditions: Homo sapiens, 72 h
# Excerpt: as §1, §2
# MiaPaCa-2 = experiment: MTS cytotoxic assay, MiaPaCa-2; type: cell-based; conditions: Homo sapiens
# Excerpt: as §1, §2
# [3] = WST-1, 0.001–100.0 µM, not dose-dependent
structure (smiles),measurement,setting,value
"C[C@]12CC[C@H]3[C@@H](CCC4=C[C@@H](O[C@@H]5OC[C@@H](O)[C@H](O)[C@H]5O)CC[C@@]43C=O)[C@@]1(O)CC[C@@H]2C1=CC(=O)OC1 [deHyr, deglucohyrcanoside]",BrDU,"CCRF-CEM cells [1]; 1 × IC50, 24 h",37.40%
same,BrDU,"CCRF-CEM cells [1]; 5 × IC50, 24 h",6.08%
same,viability of mouse macrophages reduced to % of the control,mouse peritoneal cells; [3],50%
same,IC50,mouse peritoneal cells,~10 nM
same,BrU,"CCRF-CEM cells [2]; 1 × IC50, 24 h",38.91%
same,BrU,"CCRF-CEM cells [2]; 5 × IC50, 24 h",12.17%
same,IC50,"L929; Mus musculus, L929, 72 h",> 10000 nM
same,IC50,CCRF-CEM,110 ± 21 nM
same,IC50,"MiaPaCa-2; MIA PaCa-2, 72 h",120 ± 5.2 nM
"CO[C@H]1C[C@H](O[C@H]2CC[C@]3(C=O)[C@H]4CC[C@]5(C)[C@@H](C6=CC(=O)OC6)CC[C@]5(O)[C@@H]4CC[C@]3(O)C2)O[C@H](C)[C@H]1O [Cy, cymarin]",BrDU,"CCRF-CEM cells [1]; 1 × IC50, 24 h",32.34%
same,BrDU,"CCRF-CEM cells [1]; 5 × IC50, 24 h",21.37%
same,"cytotoxicity to mouse macrophages, % of the control",mouse peritoneal cells; [3],about 60%
same,IC50,mouse peritoneal cells,≤ 1 nM
same,BrU,"CCRF-CEM cells [2]; 1 × IC50, 24 h",35.63%
same,BrU,"CCRF-CEM cells [2]; 5 × IC50, 24 h",27.52%
same,IC50,"L929; Mus musculus, L929, 72 h",> 10000 nM
same,IC50,CCRF-CEM,14 ± 2.1 nM
same,IC50,"MiaPaCa-2; MIA PaCa-2, 72 h",44 ± 8.6 nM
"C[C@]12CC[C@H]3[C@@H](CCC4=C[C@@H](O[C@@H]5OC[C@@H](O[C@@H]6O[C@H](CO)[C@@H](O)[C@H](O)[C@H]6O)[C@H](O)[C@H]5O)CC[C@@]43C=O)[C@@]1(O)CC[C@@H]2C1=CC(=O)OC1 [Hyr, (3β)-3-[(4-O-β-D-glucopyranosyl-β-D-xylopyranosyl)oxy]-14-hydroxy-19-oxocarda-4,20(22)-dienolide]",BrDU,"CCRF-CEM cells [1]; 1 × IC50, 24 h",30.58%
same,BrDU,"CCRF-CEM cells [1]; 5 × IC50, 24 h",23.58%
same,"cytotoxicity to mouse macrophages, % of the control",mouse peritoneal cells; [3],about 60%
same,IC50,mouse peritoneal cells,~100 nM
same,BrU,"CCRF-CEM cells [2]; 1 × IC50, 24 h",28.80%
same,BrU,"CCRF-CEM cells [2]; 5 × IC50, 24 h",3.82%
same,IC50,"L929; Mus musculus, L929, 72 h",> 10000 nM
same,IC50,CCRF-CEM,660 ± 38 nM
same,IC50,"MiaPaCa-2; MIA PaCa-2, 72 h",491 ± 23 nM
"C[C@@H]1O[C@@H](O[C@H]2C[C@@H](O)[C@]3(CO)[C@H]4[C@H](O)C[C@]5(C)[C@@H](C6=CC(=O)OC6)CC[C@]5(O)[C@@H]4CC[C@]3(O)C2)[C@H](O)[C@H](O)[C@H]1O [Ob, ouabain]",BrDU,"CCRF-CEM cells [1]; 1 × IC50, 24 h",40.53%
same,BrDU,"CCRF-CEM cells [1]; 5 × IC50, 24 h",19.29%
same,decrease of viability of mouse macrophages compared to the control,"mouse peritoneal cells; WST-1, independent of concentration 1 nm–100 µM",10–20%
same,cytotoxicity to mouse macrophages (in words),mouse peritoneal cells; up to 100 µM concentration,did not exhibit significant cytotoxicity
same,BrU,"CCRF-CEM cells [2]; 1 × IC50, 24 h",39.77%
same,BrU,"CCRF-CEM cells [2]; 5 × IC50, 24 h",6.56%
same,IC50,"L929; L929 mouse transformed fibroblasts, MTS, 72 h, read-out: IC50",> 10000 nM
same,IC50,"CCRF-CEM; MTS, read-out: IC50",32 ± 5.8 nM
same,IC50,"MiaPaCa-2; MIA PaCa-2, MiaPaCa-2, MTS, 72 h, read-out: IC50",49 ± 2.01 nM
